# Entries after “also recorded” stand apart in the source; their conditions may differ.
# Tests used:
# Type in all cases: in vivo, human
# [1] = tested on: RA patients who also suffered from Sicca (dry eyes); assay: Schirmer test in RA patients with Sicca given oral IB-MECA capsules twice daily
# Method: The IB-MECA was formulated in oval softgel capsules. The capsules contained solutions of IB-MECA in Cremophor RH 40 and Miglyol 812. The capsules contained a dose of 0.1, 1 or 4 mg of IB-MECA, the exact composition of each capsules' type is shown in the following Tabels 1-3: The capsules with IB-MECA were given to patients orally twice daily. All patients had rheumatoid arthritis (RA) and were give IB-MECA within the framework of a clinical study aimed at testing the effect of IB-MECA in modifying RA disease symptoms in these patients. The patients received randomly capsules of one of the above there doses. The patients received the IB-MECA for a period of 12 weeks. 4 out of the treated patients also suffered from Sicca and the effect of IB-MECA on their dry eye symptoms was examined as well. Specifically, four patients at the age 58±4 years who suffered from RA for 8±2 years were followed. At base line, the patients had elevated levels of rheumatoid factor, i.e., 313±120 IU/ml (0<normal<40) and had suffered from dry eyes for 5±1.6 years. Upon treatment with IB-MECA for 6.25±1.1 months, an improvement in Schirmer's test from 8.5±1.4 mm to 15.6±2.9 mm was observed.
# [2] = tested on: patient with rheumatoid arthritis (RA) and secondary Sjogren symptoms, mainly manifested by dry eye; assay: Phase 2 clinical trial: dry eye symptoms of one patient with RA and secondary Sjogren symptoms
# Text: A patient with rheumatoid arthritis (RA) and secondary Sjogren symptoms, mainly manifested by dry eye, treated for years with eye drops (tear substitutes) participated in a phase 2 clinical trial with IB-MECA for the treatment of active RA. […] The patient took part in a phase 2, multicenter, randomized, double-blind, parallel-group, dose-ranging study of the safety and preliminary efficacy of daily IB-MECA administered orally for 12 weeks to patients with active rheumatoid arthritis. The patient is a person with a 7 year history of RA, previously treated with 3 disease-modifying anti-rheumatic drugs (DMARDs), and a history of 2-3 years of dry eyes treated with tear substitutes a few times a day. After a 4 week DMARD washout period, the patient was treated with a blinded dose of IB-MECA—either 0.1, 1.0 or 4.0 mg q 12 h for 12 weeks. They are currently continuing IB-MECA treatment under a long term extension protocol of the original 12 weeks study.
# [3] = tested on: patient with active rheumatoid arthritis; assay: Phase 2 clinical trial: condition of the RA in the same patient; details: one patient; blinded dose 0.1, 1.0 or 4.0 mg q 12 h oral, 12 weeks
# Text: The patient took part in a phase 2, multicenter, randomized, double-blind, parallel-group, dose-ranging study of the safety and preliminary efficacy of daily IB-MECA administered orally for 12 weeks to patients with active rheumatoid arthritis. The patient is a person with a 7 year history of RA, previously treated with 3 disease-modifying anti-rheumatic drugs (DMARDs), and a history of 2-3 years of dry eyes treated with tear substitutes a few times a day. After a 4 week DMARD washout period, the patient was treated with a blinded dose of IB-MECA—either 0.1, 1.0 or 4.0 mg q 12 h for 12 weeks. They are currently continuing IB-MECA treatment under a long term extension protocol of the original 12 weeks study.
# [4] = Patient 3, dose 4.0 twice daily oral, 7 months treatment, base line 5
smiles,measurement,setting,value
"CNC(=O)[C@H]1O[C@@H](n2cnc3c(NCc4cccc(I)c4)ncnc32)[C@H](O)[C@@H]1O [IB-MECA, N^6-(3-iodobenzyl)-adenosine-5′-N-methyluronamide]",Schirmer test Left eye End of study,"[1]; Mean of 4 patients, doses 0.1-4.0 twice daily, mean 6.25 months treatment, base line mean 6.75",16.5 mm
same,Schirmer test Right eye End of study,"[1]; Mean of 4 patients, doses 0.1-4.0 twice daily, mean 6.25 months treatment, base line mean 10.25",14.75 mm
same,Schirmer test Left eye End of study,"[1]; Patient 1, dose 0.1 twice daily oral, 4 months treatment, base line 6",9 mm
same,Schirmer test Right eye End of study,"[1]; Patient 1, dose 0.1 twice daily oral, 4 months treatment, base line 14",9 mm
same,Schirmer test Left eye End of study,"[1]; Patient 2, dose 1.0 twice daily oral, 5 months treatment, base line 10",32 mm
same,Schirmer test Right eye End of study,"[1]; Patient 2, dose 1.0 twice daily oral, 5 months treatment, base line 15",23 mm
same,Schirmer test Left eye End of study,[1]; [4],16 mm
same,Schirmer test Right eye End of study,[1]; [4],17 mm
same,Schirmer test Left eye End of study,"[1]; Patient 4, dose 1.0 twice daily oral, 9 months treatment, base line 6",9 mm
same,Schirmer test Right eye End of study,"[1]; Patient 4, dose 1.0 twice daily oral, 9 months treatment, base line 7",10 mm
same,Schirmer's test after treatment,"[1]; four RA patients, treatment for 6.25±1.1 months, improvement from 8.5±1.4 mm at base line",15.6±2.9 mm
same,symptoms of dry eye (secondary Sjogren's syndrome),"[2]; blinded dose 0.1, 1.0 or 4.0 mg q 12 h oral, 12 weeks plus extension",improved significantly; also recorded: substantial improvement
same,time of IB-MECA administration after which tear substitutes were no longer needed,"[2]; patient-reported, blinded dose 0.1, 1.0 or 4.0 mg q 12 h oral",3-4 weeks
same,current dry eye symptoms under continued treatment,"[2]; patient-reported, long term extension protocol",no symptoms of dry eye
same,"condition of the RA (swollen and tender joints, ESR and CRP, global assessments, pain and disability)",[3],marked improvement

# — US7825102B2, “Treatment of dry eye conditions” (Can-Fite Biopharma Ltd., priority 2004, dated 2010)
